In patent US10221271B2, “Polymer/copper combination for targeted cancer therapy” (University of South Carolina, priority 2014, dated 2019):

Columns and labels:
[1] = system: intracellular GSH in NCI/ADR-Res, UMSCC 22A, and SKOV-3 cells; assay: GSH-Glo Glutathione Assay, intracellular GSH level; assay type: cell-based; conditions: BSO 1 mM, 8 h
Experimental: (§1) It has been reported that GSH levels in tumor tissues, such as ovarian, head and neck, breast, and lung cancer are higher than that in normal tissues. To probe whether the high GSH level is also prevail in cancer cells in vitro, GSH-Glo™ Glutathione Assay was employed. Briefly, tumor and normal cells were seeded in 96-well white plate (5,000 cells/well) overnight prior to the study. BSO (1 mM) or GSH-MME (5 mM) in culture medium was added. For control group, only fresh culture medium was added. Cells were incubated for 8 h, and the intracellular GSH concentration was measured by GSH-Glo™ Glutathione Assay according to the manufacturer's instruction.
(§2) Accordingly, glutathione-monomethylester (GSH-MME, 5 mM) and buthionine sulfoxamine (BSO, 1 mM) were employed to boost or deplete the intracellular GSH level in normal cells (NIH 3T3, BNL CL.2, KC, and MCF 10A) or cancer cells (NCI/ADR-Res, HCT 116, UMSCC 22A, SKOV-3, and MDA-MB-231), respectively.

[2] = system: SKOV-3 cells; assay: Cell cycle analysis by flow cytometry; assay type: cell-based; conditions: 41.58 μM, 12 h, FIG. 14
Experimental: FIG. 14 presents cell cycle analysis of SKOV-3 cells after treated with 41.58 μM of PDA-PEG/Cu2+ for 12 h. Flow cytometry spectra (A) and quantitive analysis (B) of cell cycle. Data represent the means±SD, n=3. *p<0.01.
CDKN1C is an inhibitor for G1 cyclin/Cdk complexes and causes cell arrest in G1 phase. To investigate the effect of CDKN1C up-regulation after PDA-PEG/Cu^2+treatment, cell cycle analysis was employed.

[3] = system: SKOV-3 cells; assay: Cellular uptake of Cy5 labeled nanoparticles, flow cytometry and confocal microscopy; assay type: cell-based; conditions: DTNB binds exofacial free thiol groups
Experimental: FIG. 9 presents […] spectra of SKOV-3 (left) and NIH 3T3 (right) cells. Cellular uptake assays were carried out 1 h after the addition of nanoparticles. Scale bars were 20 μm.
FIG. 10 presents the flow cytometry spectra of SKOV-3 (left) and NIH 3T3 (right) cells treated with Cy5 labeled PDA-PEG nanoparticles. Cellular uptake assays were carried out 1 h after the addition of nanoparticles.
PDA-PEG was modified by Cy5 for cellular uptake study. Briefly, cysteamine (0.11 mg, 5% PDA function group) in 500 μL DMSO was added dropwise into 20 mg PDA-PEG in 500 μL DSMO and the reaction mixture was kept at room temperature overnight. After overnight reaction, Cy5-NHS ester (0.39 mg in 390 μL DMSO) was added and the mixture was kept for reacting overnight, following a thoroughly dialysis towards DMSO to remove free Cy5. The concentration of Cy5 in the final product was measured by a microplate reader (SpectraMax® M5. Molecular Devices Inc) at λex640 and λem680.
To probe the mechanism for PDA-PEG/Cu^2+ selectively killing cancer cells, the cellular uptake of PDA-PEG and PDA-PEG/Cu^2+ nanoparticle was investigated with flow cytometry and confocal microscopy. […] Therefore, the uptake of PDA-PEG/Cu^2+ wasn't the reason for its cancer-cell-selectivity. 5,5′-Dithio-bis-(2-nitrobenzoic acid) (DTNB) is a compound binds the free thiol groups on the surface of cell membrane. […]

[4] = system: intracellular GSH in normal cells (NIH 3T3, BNL CL.2, KC, and MCF 10A); conditions: GSH-MME 5 mM, 8 h
Experimental: as §1, §2

CCCCS(=N)(=O)CCC(N)C(=O)O (stereo not shown) [BSO, Buthionine sulfoximine]
intracellular GSH level [1]: declined GSH level

[Cl][Cu][Cl] [Cu^2+ ion, CuCl2]
effect on cell cycle distribution [2]: did not show any effect

O=C(O)c1cc(SSc2ccc([N+](=O)[O-])c(C(=O)O)c2)ccc1[N+](=O)[O-] [DTNB, 5,5′-Dithio-bis-(2-nitrobenzoic acid)]
effect on cellular uptake of PDA-PEG [3]: significantly inhibited

COC(=O)CNC(=O)[C@H](CS)NC(=O)CC[C@H](N)C(=O)O [GSH-MME, Glutathione monomethylester]
intracellular GSH level [4]: higher intracellular GSH level
